Activity calls are given as the source filed them. No rule for the calls is given here.
The molecules below were run on MT1-MMP promoter luciferase reporter cells, luminescence (assay: inhibitors of MT1-MMP promoter transcription, cell-based, luciferase reporter, luminescence (AID 618);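 also: actives suppress MT1-MMP promoter-driven transcription so potencies describe inhibitors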).
In the case of O=C(O)CCSc1nc2ccccc2s1, the EC50 is reported as 15.4 µM.
Cc1ccc2nc(-c3cc(N)cc(N)c3)oc2c1 gave an EC50 of 1.57 µM.
Molecule CC(=O)Nc1ccc2oc(-c3cc(F)c(F)cc3Cl)nc2c1 has an EC50 of 3.48 µM.
CCN(CC)c1ccc2cc(-c3nc4ccccc4[nH]3)c(=O)oc2c1 gave an EC50 of 1.06 µM.
For O=C(c1cccc(COc2ccc(Cl)cc2Cl)c1)N1CCN(c2ccccn2)CC1, the EC50 was 12.6 µM.
Molecule CN(C)c1ccc(NC(=S)c2ccccn2)cc1 has an EC50 of 0.4 µM.
Molecule Cc1ccc(OCc2nc(-c3ccccn3)no2)c(Br)c1 has an EC50 of 2.17 µM.
For COC(=O)c1ccc(-c2nc3cc(N)ccc3o2)cc1, the EC50 was 3.09 µM.
With CCc1ccc(-c2cc(C(=O)Nn3cnnc3)c3ccccc3n2)cc1 the EC50 was 2.12 µM.
Molecule C=CCn1c(C)cc(C(=O)CSc2nc3ccccc3[nH]2)c1C has an EC50 of 2.64 µM.
With Clc1ccccc1OCc1nc(-c2ccccn2)no1 the EC50 was 6.65 µM.
COC(=O)CCn1nnc(-c2ccc(C(C)C)cc2)n1 showed an EC50 of 0.11 µM.
COc1nc(C)ccc1-c1noc(-c2ccco2)n1 was tested, and the EC50 was 10.9 µM.
Molecule c1ccc(-c2ccc(-c3ccccn3)nn2)nc1 has an EC50 of 4.2 µM.
In the case of COc1ccc(NC(=O)/C(Cl)=C(/Cl)S(=O)(=O)Cc2ccc(C)cc2)cn1, the EC50 is reported as 14.5 µM.
With Cc1cc(C(=O)COC(=O)c2n[nH]c3ccccc23)c(C)n1C the EC50 was 7.21 µM.
With COc1ccccc1-c1cc(C(F)(F)F)nc(S(=O)(=O)CCCC(=O)N2CCOCC2)n1 the EC50 was 22 µM.
In the case of Cc1cc(C)n(-c2nc3ccccc3nc2N2CCC(C)CC2)n1, the EC50 is reported as > 50 µM (inactive).
For Cc1cc(C)c(OCC(=O)Nc2cccc(O)c2)cc1C, the EC50 was 26.6 µM.
For C=CCn1c(C)cc(C(=O)CSc2ccc(NC(C)=O)cc2)c1C, the EC50 was 2.37 µM.
CN(C)CCCNS(=O)(=O)c1ccc(N2CCC(c3ccc(Cl)cc3)=N2)cc1 gave an EC50 of 12 µM.
Work on COC(=O)c1ccc(-c2nc(-c3cccs3)no2)cc1 yielded an EC50 of 1.12 µM.
CN(C)c1ccc(N/C=C/C(=O)c2ccco2)cc1 gave an EC50 of 4.42 µM.
In the case of CCCN1C=CC(=C2C(=O)c3ccccc3C2=O)C=C1, the EC50 is reported as < 0.098 µM.
c1ccc(OCCSc2nnc3sc4ccccc4n23)cc1 showed an EC50 of 1.43 µM.
For Cc1cnc(NC(=O)C2COc3ccccc3O2)s1 (centres undefined), the EC50 was 0.61 µM.
Work on CCN1C=CC(=C2C(=O)c3ccccc3C2=O)C=C1 yielded an EC50 of 0.2 µM.
In the case of CCc1cc2c(=O)n(Cc3ccco3)c(SCc3c(C)noc3C)nc2s1, the EC50 is reported as > 50 µM (inactive).
CC(C)C(=O)Nc1ccc(NC(=O)c2ccccn2)cn1 showed an EC50 of 6.27 µM.
In the case of COc1ccc(O)c(C(=O)CC(=O)c2ccc(F)cc2)c1, the EC50 is reported as 0.57 µM.
O=C(Nc1ccc(N2CCCC2)c(Cl)c1)c1ccco1 was tested, and the EC50 was 2.68 µM.
CCOC(=O)c1sc2nc3c(cc2c1N)COC(C(C)C)C3 (centres undefined) was tested, and the EC50 was 1.62 µM.
COc1ccc(C(=O)Nn2c(SCC(=O)NCc3ccccc3)nc3ccccc3c2=O)cc1 was tested, and the EC50 was 1.29 µM.
CCOC(=O)C1CCCCN1C(=O)CCc1c(C)nc2cc(-c3ccccc3)nn2c1C (centres undefined) showed an EC50 of 1.15 µM.
Molecule Cc1c(C(=O)NCC2CCCO2)oc2ccc3c(c12)C(=O)CC(C)(C)O3 (centres undefined) has an EC50 of 12.5 µM.
CC(C)C(=O)NC(c1ccco1)c1ccc2cccnc2c1O (centres undefined) was tested, and the EC50 was 27.6 µM.
Molecule CCOC(=O)CNC(=O)CSc1ncnc2c1cnn2-c1ccc(C)cc1 has an EC50 of 28 µM.
Cc1cc(NCCCn2ccnc2)n2ncc(-c3ccc(Cl)cc3)c2n1 was tested, and the EC50 was 8.72 µM.
O=C(c1c(Cl)nc2sccn12)N1CCN(c2cccc(Cl)c2)CC1 gave an EC50 of 48.6 µM.
COCCn1c(C)cc(C(=O)CSc2nnc3ccccn23)c1C was tested, and the EC50 was 3.63 µM.
O=C(O)CSCC(=O)Nc1ccc(C2CCCCC2)cc1 showed an EC50 of 0.58 µM.
Molecule Cc1oc(-c2ccc3c(c2)OCCO3)cc1C(=O)O has an EC50 of 2.94 µM.
In the case of COc1ccc(-c2noc(CCCC(=O)O)n2)cc1, the EC50 is reported as 0.77 µM.
Work on CC(C)(C)c1ccc(C(=O)N2CCCCCC2=O)cc1 yielded an EC50 of 12.8 µM.
CC(C)Nc1ncnc2c1cnn2-c1ccc(Cl)cc1 gave an EC50 of 3.85 µM.
Molecule CN1/C(=C\C=C\C2=[N+](C)c3ccc4ccccc4c3C2(C)C)C(C)(C)c2ccccc21 has an EC50 of 4.71 µM.
Cc1ccnc(Nc2nc3ccccc3o2)n1 was tested, and the EC50 was 13 µM.
O=c1c2ccccc2nnn1CSc1nnc2sc3ccccc3n12 showed an EC50 of 8.02 µM.
O=C1C(Cl)=C(N2CCCCC2)C(=O)C(Cl)=C1c1cnc(N2CCCCC2)s1 was tested, and the EC50 was 4.53 µM.
Cc1cc(C)c(C)c(S(=O)(=O)Nc2ccccc2C(=O)NCCCn2ccnc2)c1C showed an EC50 of 1.82 µM.
For CCCC(=O)Nc1ccc(-c2nc3cc(C)ccc3o2)cc1, the EC50 was 12 µM.
O=C(CCCc1ccccc1)c1ccc2c(c1)OCCO2 showed an EC50 of 0.28 µM.
O=C(Nc1ccc(N2CCCCC2)cc1)c1ccccc1 gave an EC50 of 3.57 µM.
Molecule Cc1ccc(-c2nc3cc(NC(=O)C(C)C)ccc3o2)cc1 has an EC50 of 5.62 µM.
For O=C1/C(=C/Nc2ccc3c(c2)OCO3)CCc2ccccc21, the EC50 was 0.81 µM.
CCc1ccc2oc(-c3cccc(N)c3)nc2c1 gave an EC50 of 3.93 µM.
N#Cc1c(NC(=O)CSc2ncn[nH]2)sc2c1CCCC2 gave an EC50 of 0.73 µM.
With COc1ccc(-n2ncc3c(NC(C)C)ncnc32)cc1 the EC50 was 5.36 µM.
With Cc1ccc(-c2nc(-c3ccccn3)no2)cc1 the EC50 was < 0.098 µM.
O=C1c2ccccc2S(=O)(=O)N1Cc1nc2ccccc2s1 gave an EC50 of 3.06 µM.
With O=C(/C=C\Nc1ccccn1)c1ccccc1 the EC50 was 2.01 µM.
Cc1csc(NC(=O)C2COc3ccccc3O2)n1 (centres undefined) gave an EC50 of 1.64 µM.
Molecule COc1ccc(C(=O)/C=C/Nc2ccccn2)cc1 has an EC50 of 0.19 µM.
Work on Cc1ccc(C(=O)N/N=C/c2ccc([N+](=O)[O-])s2)cc1 yielded an EC50 of 0.3 µM.
